Results on 1 molecule are retold here after ChEMBL document CHEMBL4477224, “Antidiabetic effect, antioxidant activity, and toxicity of 3',4'-Di-O-acetyl-cis-khellactone in Streptozotocin-induced diabetic rats” (Bioorg Med Chem Lett, 2016).

Activity calls are given as the source filed them. The calls are words filed in the database; no cut-off is given here.

The nature of data set [1]: Mutagenicity in Salmonella typhimurium TA102 assessed as mutagenic index at 17.30 uM/plate after 48 hrs in presence of S9 fraction by Ames test relative to control. It counts as toxicity, subcellular. The conditions noted are these: salmonella enterica subsp. enterica serovar typhimurium, s9, 48 h, 17.3 µM. (The Ames test detects mutagens through reverse mutation in bacteria.)

Data set [2] is described as follows: Genotoxicity in BALB/c mouse blood at 300 mg/kg after 48 hrs by micronucleus assay. The data set is classed as toxicity, organism-based. The conditions noted are these: in vivo.
A short description of data set [3]: Mutagenicity in Salmonella typhimurium TA98 assessed as mutagenic index at 100 uM/plate after 48 hrs in absence of S9 fraction by Ames test relative to control. The conditions noted are these: salmonella enterica subsp. enterica serovar typhimurium, s9, 48 h. It counts as toxicity.
The nature of data set [4]: Mutagenicity in Salmonella typhimurium TA102 assessed as mutagenic index at 8.65 uM/plate after 48 hrs in absence of S9 fraction by Ames test relative to control. The data set is classed as toxicity. The conditions noted are these: salmonella enterica subsp. enterica serovar typhimurium, s9, 48 h.
Data set [5] deals with Rattus norvegicus. Put plainly: Antidiabetic activity in STZ-induced diabetic Wistar rat assessed as increase in fasting blood glucose level at 15 mg/kg, po administered for 15 days post STZ challenge measured on day 21 by glucometry. It counts as functional.
A short description of data set [6]: Acute toxicity in BALB/c mouse assessed as increase in body weight at 2000 mg/kg, ig after 14 days (reference value: 13.3 +/- 0.3g). The data set is classed as organism-based. Particulars: in vivo, po, 336 h.
The test system of data set [7] is Rattus norvegicus. Briefly: Antidiabetic activity in STZ-induced diabetic Wistar rat blood assessed as LDL level at 15 mg/kg, po administered for 15 days (reference value: 23.11 +/- 9.82 mg/dl). It counts as functional.
The nature of data set [8]: Mutagenicity in Salmonella typhimurium TA98 assessed as mutagenic index at 34.60 uM/plate after 48 hrs in absence of S9 fraction by Ames test relative to control. It counts as toxicity. The conditions noted are these: salmonella enterica subsp. enterica serovar typhimurium, s9, 48 h, 34.6 µM.
In data set [9] the test system is Rattus norvegicus. Put plainly: Antidiabetic activity in STZ-induced diabetic Wistar rat liver assessed as effect on central vein architecture at 15 mg/kg, po administered for 15 days by hematoxylin/eosin staining based microscopy. It counts as functional, organism-based.
The nature of data set [10]: Mutagenicity in Salmonella typhimurium TA100 assessed as mutagenic index at 50 uM/plate after 48 hrs in absence of S9 fraction by Ames test relative to control. The data set is classed as toxicity. The conditions noted are these: salmonella enterica subsp. enterica serovar typhimurium, s9, 48 h.
Data set [11] has as its system Rattus norvegicus. Put plainly: Antidiabetic activity in STZ-induced diabetic Wistar rat assessed as change in fasting blood glucose level at 15 mg/kg, po administered on day 7 post STZ challenge measured immediately post dosage by glucometry (reference value: 72.90 +/- 5.2 mg/dl). The data set is classed as functional.
A short description of data set [12]: Mutagenicity in Salmonella typhimurium TA100 assessed as mutagenic index at 17.30 uM/plate after 48 hrs in absence of S9 fraction by Ames test relative to control. The data set is classed as toxicity. The conditions noted are these: salmonella enterica subsp. enterica serovar typhimurium, s9, 48 h, 17.3 µM.
Data set [13] deals with Rattus norvegicus. Put plainly: Antidiabetic activity in STZ-induced diabetic Wistar rat blood assessed as HDL level at 15 mg/kg, po administered for 15 days (reference value: 36.31 +/- 0.51 mg/dl). The data set is classed as functional.
Data set [14] is described as follows: Mutagenicity in Salmonella typhimurium TA98 assessed as mutagenic index at 100 uM/plate after 48 hrs in presence of S9 fraction by Ames test relative to control. It counts as toxicity, subcellular. The conditions noted are these: salmonella enterica subsp. enterica serovar typhimurium, s9, 48 h.
For data set [15], the system named is Rattus norvegicus. Put plainly: Antioxidant activity in STZ-induced diabetic Wistar rat liver assessed as SOD level measured per mg of protein at 15 mg/kg, po administered for 15 days by NBT reduction test (reference value: 0.22 +/- 0.06 microM/min). The data set is classed as functional.
Data set [16] has as its system Rattus norvegicus. Briefly: Antioxidant activity in STZ-induced diabetic Wistar rat liver assessed as glutathione peroxidase level measured as NADPH consumption per mg of protein at 15 mg/kg, po administered for 15 days (reference value: 10 +/- 0.6 microM/min). The data set is classed as functional.
A short description of data set [17]: Mutagenicity in Salmonella typhimurium TA102 assessed as mutagenic index at 34.60 uM/plate after 48 hrs in presence of S9 fraction by Ames test relative to control. The data set is classed as toxicity, subcellular. The conditions noted are these: salmonella enterica subsp. enterica serovar typhimurium, s9, 48 h, 34.6 µM.
A short description of data set [18]: Mutagenicity in Salmonella typhimurium TA100 assessed as mutagenic index at 34.60 uM/plate after 48 hrs in presence of S9 fraction by Ames test relative to control. Particulars: salmonella enterica subsp. enterica serovar typhimurium, s9, 48 h, 34.6 µM. The data set is classed as toxicity, subcellular.
Data set [19] relates to Rattus norvegicus. Briefly: Antidiabetic activity in STZ-induced diabetic Wistar rat assessed as increase in body weight at 15 mg/kg, po administered for 15 days post STZ challenge measured on day 21. The data set is classed as functional.
Data set [20] in a line: Mutagenicity in Salmonella typhimurium TA98 assessed as mutagenic index at 50 uM/plate after 48 hrs in absence of S9 fraction by Ames test relative to control. The conditions noted are these: salmonella enterica subsp. enterica serovar typhimurium, s9, 48 h. The data set is classed as toxicity.

For the molecule `CC(=O)O[C@@H]1c2c(ccc3ccc(=O)oc23)OC(C)(C)[C@@H]1OC(C)=O` (relative stereo) [QUIANHUCOUMARIN D], the Ratio was 1.2 in data set [1]; 0.4 in [3]; 0.7 in data set [4]; 0.8 in data set [8]; 0.9 in [10]; 1 in data set [12]. Also, the Ratio in data set [14] stood at 1.4; in data set [17], 1.4; in [18], 0.8; in data set [20], 1.1. The Activity result in data set [2] was “Non-Toxic”; in the data set with Rattus norvegicus [5] it was 55.35 mg/dL; in [6], 13 g; in the data set with Rattus norvegicus [7], 22.38 mg/dL; with Rattus norvegicus [11], 363.2 mg/dL; in the data set on Rattus norvegicus [13] it was 29.77 mg/dL. Moreover, the Activity worked out at 0.73 U/min with Rattus norvegicus [15], 119 µM/min in the data set on Rattus norvegicus [16] and 45.7 g with Rattus norvegicus [19]. In the data set on Rattus norvegicus [9], the result was Active.
